In article PMC6270836, “Carapanolides J–L from the Seeds of Carapa guianensis (Andiroba) and Their Effects on LPS-Activated NO Production” (Molecules, 2014):
Values joined by “and” are separate entries in the source; they are usually repeats but may differ in a detail not shown here. Identical values can stand only once. “Also recorded” adds a separate entry of the source. Like-named read-outs stand apart in the source and are kept apart here.

How the values were obtained:
[1] = tested on: NO production in LPS-stimulated RAW264.7 cells; experiment: Inhibitory assay of NO production in LPS-stimulated RAW264.7 cells; assay type: cell-based, mouse; settings: for Produced NO (%): LPS 5 μg/mL, DMSO control = 100%, mean ± S.E., n=3; for IC50: Mus musculus, read-out: IC50 (μM), produced NO
Method: (§1) Physiological nitric oxide (NO) is involved in blood pressure regulation and blood flow distribution, whereas its overexpression may induce tissue injury, multiple organ dysfunction, and death, as well as systemic inflammatory responses in sepsis, such as hypotension, cardiodepression, and vascular hyporeactivity. In the present study, four limonoids and L-NMMA, an inducible nitric oxide synthase (iNOS) inhibitor, were evaluated for their inhibitory effects on NO production in LPS-stimulated RAW264.7 cells (Table 3). To determine safe concentrations, the cytotoxicities of these limonoids against RAW 264.7 were assessed by the MTT assay.
An inhibitory assay of nitric oxide production was performed according to a method reported previously with slight modifications. Briefly, RAW264.7 cells (5 × 10^4 cells in 100 μL) were seeded onto 96-well microplates, and incubated for 24h. D-MEM (100 μL) containing test samples (final concentration of 100, 30, 10, or 3 μM) dissolved in DMSO (final concentration 0.2%) and LPS (final concentration of 5 μg/mL) were added. […] After being incubated for 30 min, the absorbance of each well was read at 570 nm using a microplate reader. The optical density of vehicle control cells was assumed to be 100%.

[2] = RAW264.7 cell proliferation / cytotoxicity by MTT assay; settings: mouse
Method: as §1
(§2) RAW264.7 cell proliferation was examined according to a method reported previously with some modifications. Briefly, RAW264.7 cells (5 × 10^4 cells in 100 μL) were seeded onto 96-well microplates, and incubated for 24 h. D-MEM (100 μL) containing test samples (final concentration of 100, 30, 10, or 3 μM) dissolved in DMSO (final concentration 0.2%) was added. […] After 3 h of incubation, 20% sodium dodecyl sulfate (SDS) in 0.1 M HCl was added to dissolve the formazan produced by the cells. The absorbance of each well was read at 570 nm using a microplate reader. The optical density of vehicle control cells was assumed to be 100%.

RAW264.7 cells = experiment: as above; settings: 3–100 μM, MTT assay
Method: as §1, §2

[3] = LPS-stimulated RAW264.7 cells, 24 h

Compound	Produced NO (%) ([1]; 3 μM, 24 h)	Produced NO (%) ([1]; 10 μM, 24 h)	Produced NO (%) ([1]; 30 μM, 24 h)	Produced NO (%) ([1]; 100 μM, 24 h)	IC50 ([1]; RAW264.7, 24 h)	IC50 at 24 h ([2]; RAW264.7 cells)	viability at 24 h, 3 µM ([2]; RAW264.7 cells)	viability at 24 h, 10 µM ([2]; RAW264.7 cells)	viability at 24 h, 30 µM ([2]; RAW264.7 cells)	viability at 24 h, 100 µM ([2]; RAW264.7 cells)	Cytotoxicity against RAW 264.7 (in words) (RAW264.7 cells)	IC50 [1, 3]	IC50 at 24 h [2]	viability at 24 h, 3 µM [2]	viability at 24 h, 10 µM [2]	viability at 24 h, 30 µM [2]	viability at 24 h, 100 µM [2]
CCC(=O)OC1C2(O)C(OC(C)=O)C3(C)CC24OC2(C)OC15C1CC(=O)OC(c6ccoc6)C1(C)CCC5(O2)C41COC(=O)CC31 (centres unmarked) [Compound 3, carapanolide L]	95.6 ± 2.5%	95.4 ± 1.2%	95.4 ± 2.9%	78.4 ± 2.3%	> 100 µM	> 100 µM	97.6 ± 0.6%	97.3 ± 1.3%	100.5 ± 0.4%	94.4 ± 1%	non-toxicities	–	–	–	–	–	–
CC(=O)O[C@@H]1C[C@H]2C(C)(C)C(=O)C=C[C@]2(C)[C@H]2CC[C@@]3(C)[C@H](c4ccoc4)C(=O)[C@H]4O[C@]43[C@@]21C [Compound 4, epoxyazadiradione]	74.0% and 74.0 ± 5.0%	30.0% and 30.0 ± 2.3%	7.5 ± 1.0%	3.9 ± 1.8%	–	–	–	–	–	–	moderate cytotoxicities	5.9 µM	21.3 µM	93.6 ± 1.4%	99.7 ± 0.8%	6.8 ± 0.3%	3.3 ± 0.3%
CC1(C)C(=O)C=CC2(C)C1CC(=O)C1(C)C2C(O)CC2(C)C(c3ccoc3)OC(=O)C3OC321 (stereo not drawn) [Compound 1, 11α-hydroxy-7-deacetoxy-7-oxogedunin]	92.1 ± 1.5%	83.4% and 83.4 ± 3.1%	61.8% and 61.8 ± 1.8%	16.8% and 16.8 ± 0.0%	–	> 100 µM	102.4 ± 0.8%	101 ± 1.7%	102.8 ± 0.6%	103 ± 1.8%	non-toxicities; also recorded: no cytotoxicity	37.4 µM	–	–	–	–	–
[H]/N=C(/NC)NCCC[C@H](N)C(=O)O [L-NMMA, reference compound]	93.0 ± 3.3%	79.3% and 79.3 ± 0.8%	58.2% and 58.2 ± 2.4%	39.9% and 39.9 ± 1.7%	–	> 100 µM	103.5 ± 0.5%	102 ± 1.5%	94.1 ± 1.4%	96.5 ± 2.5%	–	53.7 µM	–	–	–	–	–
C/C=C(\C)C(=O)OC1C2(C)CC3(O)C(C)(C4CCC5(C)C(=C4C(OC(=O)C(C)CC)C13O)C(OC(C)=O)C(=O)OC5c1ccoc1)C2CC(=O)OC (centres unmarked) [Compound 2, carapanolide K]	78.6 ± 1.9%	58.3 ± 2.8%	25.8 ± 7.0%	7.1 ± 1.2%	–	15.2 µM	81.4 ± 0.8%	65.6 ± 0.2%	33.6 ± 6.3%	0.4 ± 0.4%	–	12 µM	–	–	–	–	–
